In patent publication US10988477B2 (Merck Patent GmbH, priority 2018, dated 2021):
Each block holds one compound with its values, some of them ahead of it.

Target: GCN2 kinase (Homo sapiens, UniProt Q9P2K8)
Test: GCN2 enzyme inhibition assay (Transcreener ADP2 fluorescence polarization)
Assay type: biochemical
Conditions: Enzyme activity for compounds of Formula IV; Ki(app), 280 μM ATP, 25° C.
Procedure: Compounds were screened for their ability to inhibit GCN2 kinase activity using a Transcreener® ADP^2 fluorescence polarization assay that detects ADP levels (BellBrook Labs, WI). Assays were carried out in a buffer consisting of 25 mM Tris-HCl (pH 7.5), 50 mM NaCl, 10 mM MgCl2 and 1 mM DTT. Final substrate concentrations were 280 μM ATP and 200 μM peptidic substrate ([…]-OH [(RS)7], Bachem, Switzerland). Assays were carried out at 25° C. in the presence of a (typical) final concentration of 4 nM GCN2 kinase. An assay buffer containing GCN2 kinase and (RS)7 was prepared. 4.7 μL of this stock solution was placed per well of a black, low volume, 384-well microtitre plate (e.g. catalogue number 3676, Corning Inc., NY). To this was added […] of DMSO containing serial dilutions of the test compound (typical final concentrations of test compound were 0 to 8 μM). The plate was incubated for 10 minutes at 25° C. prior to the addition of 4.7 μL of ATP stock buffer to initiate the enzyme reaction. The reaction was allowed to proceed for 1 hour at 25° C., prior to the addition of 10 μL detection buffer (consisting of appropriate concentrations of ADP^2 antibody and ADP Alexa633 tracer in 1× stop and detect buffer as supplied by BellBrook Labs). […] Percentage inhibition of enzyme activity was then calculated at each compound dose. IC50 and Ki(app) (using known assay and kinetic parameters) values were calculated from percentage inhibition data using a non-linear, tight-binding algorithm. All data analysis was undertaken using the Screener® software package (Genedata, Switzerland).

Chain of GCN2 kinase (Q9P2K8 whole entry): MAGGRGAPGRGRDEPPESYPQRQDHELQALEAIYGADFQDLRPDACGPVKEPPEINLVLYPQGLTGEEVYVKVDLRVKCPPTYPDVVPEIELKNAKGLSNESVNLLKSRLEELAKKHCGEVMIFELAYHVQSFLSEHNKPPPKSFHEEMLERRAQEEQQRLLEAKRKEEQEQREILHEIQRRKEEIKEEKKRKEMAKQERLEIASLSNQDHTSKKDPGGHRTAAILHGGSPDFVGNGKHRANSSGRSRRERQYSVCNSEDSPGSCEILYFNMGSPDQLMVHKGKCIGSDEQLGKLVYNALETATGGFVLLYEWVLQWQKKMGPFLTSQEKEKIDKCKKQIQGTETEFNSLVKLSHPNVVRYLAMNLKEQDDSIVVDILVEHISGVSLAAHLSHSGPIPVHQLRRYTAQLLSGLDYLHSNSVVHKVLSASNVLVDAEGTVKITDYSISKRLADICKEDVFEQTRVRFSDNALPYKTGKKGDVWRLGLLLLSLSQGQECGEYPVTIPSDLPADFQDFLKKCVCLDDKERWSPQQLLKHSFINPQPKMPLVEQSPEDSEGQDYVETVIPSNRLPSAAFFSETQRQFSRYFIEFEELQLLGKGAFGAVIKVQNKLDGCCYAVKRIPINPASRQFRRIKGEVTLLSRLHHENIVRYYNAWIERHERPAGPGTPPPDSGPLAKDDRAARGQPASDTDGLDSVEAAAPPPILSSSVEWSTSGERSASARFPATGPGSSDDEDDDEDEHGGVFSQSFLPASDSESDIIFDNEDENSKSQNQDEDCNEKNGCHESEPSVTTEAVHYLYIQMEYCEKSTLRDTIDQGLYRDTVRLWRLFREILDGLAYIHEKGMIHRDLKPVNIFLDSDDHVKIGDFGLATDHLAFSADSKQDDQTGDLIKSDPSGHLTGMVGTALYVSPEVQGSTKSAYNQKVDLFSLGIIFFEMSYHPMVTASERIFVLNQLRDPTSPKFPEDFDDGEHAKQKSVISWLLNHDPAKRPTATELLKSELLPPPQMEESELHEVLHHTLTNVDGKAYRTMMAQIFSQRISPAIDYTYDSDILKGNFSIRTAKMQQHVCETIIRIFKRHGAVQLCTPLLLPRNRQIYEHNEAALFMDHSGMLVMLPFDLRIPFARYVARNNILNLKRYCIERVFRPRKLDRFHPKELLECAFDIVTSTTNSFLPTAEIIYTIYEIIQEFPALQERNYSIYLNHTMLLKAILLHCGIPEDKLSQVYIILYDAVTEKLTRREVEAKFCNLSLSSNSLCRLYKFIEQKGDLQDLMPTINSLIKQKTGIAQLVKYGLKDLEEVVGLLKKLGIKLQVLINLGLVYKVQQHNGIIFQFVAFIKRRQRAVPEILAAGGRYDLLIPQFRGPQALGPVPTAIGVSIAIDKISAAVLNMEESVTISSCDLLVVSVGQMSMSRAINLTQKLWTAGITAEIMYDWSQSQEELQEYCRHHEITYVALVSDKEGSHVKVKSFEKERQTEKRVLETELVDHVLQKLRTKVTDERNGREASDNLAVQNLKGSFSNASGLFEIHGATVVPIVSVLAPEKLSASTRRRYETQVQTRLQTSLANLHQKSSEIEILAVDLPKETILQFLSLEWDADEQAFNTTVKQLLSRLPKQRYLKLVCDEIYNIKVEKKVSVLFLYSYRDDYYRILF

SMILES: CC1C(c2cn[nH]c2)NCCN1c1ccnc(-c2cnc3cnc(Cl)cn23)n1 (single isomer, unassigned) [IV-229, 6-Chloro-3-(4-(2-methyl-3-(1H-pyrazol-4-yl)piperazin-1-yl)pyrimidin-2-yl)imidazo[1,2-a]pyrazine]
Ki: 100 to 1000 nM

SMILES: Clc1cn2c(-c3nccc(N4CCNC(c5cn[nH]c5)C4)n3)cnc2cn1 (single isomer, unassigned) [IV-237, 3-(4-(3-(1H-Pyrazol-4-yl)piperazin-1-yl)pyrimidin-2-yl)-6-chloroimidazo[1,2-a]pyrazine]
Ki: 100 to 1000 nM

SMILES: Clc1cn2c(-c3nccc(N4CCNC(c5cn[nH]c5)C4)n3)cnc2cn1 (single isomer, unassigned) [IV-238, 3-(4-(3-(1H-Pyrazol-4-yl)piperazin-1-yl)pyrimidin-2-yl)-6-chloroimidazo[1,2-a]pyrazine]
Ki: 10 to 100 nM

SMILES: CC1C(c2cn[nH]c2)OCCN1c1ccnc(-c2cnc3cnc(Cl)cn23)n1 (single isomer, unassigned) [IV-244, 4-(2-(6-Chloroimidazo[1,2-a]pyrazin-3-yl)pyrimidin-4-yl)-3-methyl-2-(1H-pyrazol-4-yl)morpholine]
Ki: 100 to 1000 nM

SMILES: NC(=O)c1cn2c(-c3nccc(N4CCN5C(=O)CCCC5C4)n3)cnc2cn1 (single isomer, unassigned) [IV-273, 3-(4-(6-Oxooctahydro-2H-pyrido[1,2-a]pyrazin-2-yl)pyrimidin-2-yl)imidazo[1,2-a]pyrazine-6-carboxamide]
Ki: 100 to 1000 nM

SMILES: NC(=O)c1cn2c(-c3nccc(N4CCN5C(=O)CCCC5C4)n3)cnc2cn1 (single isomer, unassigned) [IV-274, 3-(4-(6-Oxooctahydro-2H-pyrido[1,2-a]pyrazin-2-yl)pyrimidin-2-yl)imidazo[1,2-a]pyrazine-6-carboxamide]
Ki: 10 to 100 nM

SMILES: C[C@H]1CN(c2cccc(-c3cnc4cnc(C(F)F)cn34)n2)C[C@@H](CNS(C)(=O)=O)C1(F)F (single isomer, unassigned) [IV-275]
Ki: 100 to 1000 nM

SMILES: Cc1[nH]ncc1C1NC(C)CN(c2ccnc(-c3cnc4cnc(Cl)cn34)n2)C1C (single isomer, unassigned) [IV-282, 6-Chloro-3-(4-(2,5-dimethyl-3-(5-methyl-1H-pyrazol-4-yl)piperazin-1-yl)pyrimidin-2-yl)imidazo[1,2-a]pyrazine]
Ki: < 10 nM

SMILES: Cc1[nH]ncc1C1NC(C)CN(c2ccnc(-c3cnc4cnc(Cl)cn34)n2)C1C (single isomer, unassigned) [IV-283, 6-Chloro-3-(4-(2,5-dimethyl-3-(5-methyl-1H-pyrazol-4-yl)piperazin-1-yl)pyrimidin-2-yl)imidazo[1,2-a]pyrazine]
Ki: 100 to 1000 nM

SMILES: CC1C(c2cn[nH]c2)OCCN1c1ccnc(-c2cnc3cnc(C#N)cn23)n1 (single isomer, unassigned) [IV-290, 3-(4-(3-Methyl-2-(1H-pyrazol-4-yl)morpholino)pyrimidin-2-yl)imidazo[1,2-a]pyrazine-6-carbonitrile]
Ki: < 10 nM

SMILES: CC1C(c2cn[nH]c2)OCCN1c1ccnc(-c2cnc3cnc(C#N)cn23)n1 (single isomer, unassigned) [IV-291, 3-(4-(3-Methyl-2-(1H-pyrazol-4-yl)morpholino)pyrimidin-2-yl)imidazo[1,2-a]pyrazine-6-carbonitrile]
Ki: 100 to 1000 nM

SMILES: O=C1CCCC2CN(c3ccnc(-c4cnc5cnc(Cl)cn45)n3)CCN12 (single isomer, unassigned) [IV-293, 2-(2-(6-Chloroimidazo[1,2-a]pyrazin-3-yl)pyrimidin-4-yl)octahydro-6H-pyrido[1,2-a]pyrazin-6-one]
Ki: 10 to 100 nM

SMILES: O=C1CCCC2CN(c3ccnc(-c4cnc5cnc(Cl)cn45)n3)CCN12 (single isomer, unassigned) [IV-294, 2-(2-(6-Chloroimidazo[1,2-a]pyrazin-3-yl)pyrimidin-4-yl)octahydro-6H-pyrido[1,2-a]pyrazin-6-one]
Ki: 10 to 100 nM

SMILES: CC1CN(c2ccnc(-c3cnc4cnc(C#N)cn34)n2)C(C)C(c2cn[nH]c2)N1 (single isomer, unassigned) [IV-313, 3-(4-(2,5-Dimethyl-3-(1H-pyrazol-4-yl)piperazin-1-yl)pyrimidin-2-yl)imidazo[1,2-a]pyrazine-6-carbonitrile]
Ki: 100 to 1000 nM

SMILES: CC1C(c2cn[nH]c2)OCCN1c1ccnc(-c2cnc3cnc(Cl)cn23)n1 (single isomer, unassigned) [IV-316, 4-(2-(6-Chloroimidazo[1,2-a]pyrazin-3-yl)pyrimidin-4-yl)-3-methyl-2-(1H-pyrazol-4-yl)morpholine]
Ki: 100 to 1000 nM

SMILES: CC1C(c2cn[nH]c2)OCCN1c1ccnc(-c2cnc3cnc(Br)cn23)n1 (single isomer, unassigned) [IV-328, 4-(2-(6-Bromoimidazo[1,2-a]pyrazin-3-yl)pyrimidin-4-yl)-3-methyl-2-(1H-pyrazol-4-yl)morpholine]
Ki: < 10 nM

SMILES: CC1C(c2cn[nH]c2)OCCN1c1ccnc(-c2cnc3cnc(Br)cn23)n1 (single isomer, unassigned) [IV-329, 4-(2-(6-Bromoimidazo[1,2-a]pyrazin-3-yl)pyrimidin-4-yl)-3-methyl-2-(1H-pyrazol-4-yl)morpholine]
Ki: 10 to 100 nM

SMILES: CC1CN(c2nc(-c3cnc4cnc(C(F)(F)F)cn34)ncc2F)CC(c2cn[nH]c2)O1 (single isomer, unassigned) [IV-334, 4-(5-Fluoro-2-(6-(trifluoromethyl)imidazo[1,2-a]pyrazin-3-yl)pyrimidin-4-yl)-2-methyl-6-(1H-pyrazol-4-yl)morpholine]
Ki: 100 to 1000 nM

The remaining lines, values ahead:

Ki: 100 to 1000 nM
SMILES: CC1CN(c2ccnc(-c3cnc4cnc(C(F)(F)F)cn34)n2)C(C)C(c2cn[nH]c2)N1 (single isomer, unassigned) [IV-223, 3-(4-(2,5-Dimethyl-3-(1H-pyrazol-4-yl)piperazin-1-yl)pyrimidin-2-yl)-6-(trifluoromethyl)imidazo[1,2-a]pyrazine]

Ki: 100 to 1000 nM
SMILES: FC(F)(F)c1cn2c(-c3nccc(N4CCNC(c5cn[nH]c5)C4)n3)cnc2cn1 (single isomer, unassigned) [IV-231, 3-(4-(3-(1H-Pyrazol-4-yl)piperazin-1-yl)pyrimidin-2-yl)-6-(trifluoromethyl)imidazo[1,2-a]pyrazine]

Ki: 10 to 100 nM
SMILES: FC(F)(F)c1cn2c(-c3nccc(N4CCNC(c5cn[nH]c5)C4)n3)cnc2cn1 (single isomer, unassigned) [IV-232, 3-(4-(3-(1H-Pyrazol-4-yl)piperazin-1-yl)pyrimidin-2-yl)-6-(trifluoromethyl)imidazo[1,2-a]pyrazine]

Ki: 100 to 1000 nM
SMILES: CC1CN(c2ccnc(-c3cnc4cnc(Cl)cn34)n2)C(C)C(c2cn[nH]c2)N1 (single isomer, unassigned) [IV-246, 6-Chloro-3-(4-(2,5-dimethyl-3-(1H-pyrazol-4-yl)piperazin-1-yl)pyrimidin-2-yl)imidazo[1,2-a]pyrazine]

Ki: 10 to 100 nM
SMILES: CC1CN(c2ccnc(-c3cnc4cnc(Br)cn34)n2)C(C)C(c2cn[nH]c2)N1 (single isomer, unassigned) [IV-287, 6-Bromo-3-(4-(2,5-dimethyl-3-(1H-pyrazol-4-yl)piperazin-1-yl)pyrimidin-2-yl)imidazo[1,2-a]pyrazine]

Ki: 100 to 1000 nM
SMILES: CCN1C(C)CN(c2ccnc(-c3cnc4cnc(C(F)(F)F)cn34)n2)C(C)C1c1cn[nH]c1 (single isomer, unassigned) [IV-295, 3-(4-(4-Ethyl-2,5-dimethyl-3-(1H-pyrazol-4-yl)piperazin-1-yl)pyrimidin-2-yl)-6-(trifluoromethyl)imidazo[1,2-a]pyrazine]

Ki: < 10 nM
SMILES: CCN1C(C)CN(c2ccnc(-c3cnc4cnc(C(F)(F)F)cn34)n2)C(C)C1c1cn[nH]c1 (single isomer, unassigned) [IV-296, 3-(4-(4-Ethyl-2,5-dimethyl-3-(1H-pyrazol-4-yl)piperazin-1-yl)pyrimidin-2-yl)-6-(trifluoromethyl)imidazo[1,2-a]pyrazine]

Ki: 10 to 100 nM
SMILES: CC1CC(c2cn[nH]c2)C(C)N(c2ccnc(-c3cnc4cnc(C(F)(F)F)cn34)n2)C1 (single isomer, unassigned) [IV-310]

Ki: < 10 nM
SMILES: CC1CN(c2ccnc(-c3cnc4cnc(C#N)cn34)n2)C(C)C(c2cn[nH]c2)N1 (single isomer, unassigned) [IV-314, 3-(4-(2,5-Dimethyl-3-(1H-pyrazol-4-yl)piperazin-1-yl)pyrimidin-2-yl)imidazo[1,2-a]pyrazine-6-carbonitrile]

Ki: 10 to 100 nM
SMILES: CC1C(c2cn[nH]c2)OCCN1c1ccnc(-c2cnc3cnc(C(F)(F)F)cn23)n1 (single isomer, unassigned) [IV-315, 3-Methyl-2-(1H-pyrazol-4-yl)-4-(2-(6-(trifluoromethyl)imidazo[1,2-a]pyrazin-3-yl)pyrimidin-4-yl)morpholine]

Ki: 10 to 100 nM
SMILES: CC1CN(c2nc(-c3cnc4cnc(C(F)(F)F)cn34)ncc2F)C(C)C(c2cn[nH]c2)N1 (single isomer, unassigned) [IV-324, 3-(4-(2,5-Dimethyl-3-(1H-pyrazol-4-yl)piperazin-1-yl)-5-fluoropyrimidin-2-yl)-6-(trifluoromethyl)imidazo[1,2-a]pyrazine]

Ki: 10 to 100 nM
SMILES: CC1CNC(c2cn[nH]c2)CN1c1ccnc(-c2cnc3cnc(C(F)(F)F)cn23)n1 (single isomer, unassigned) [IV-333, 3-(4-(2-Methyl-5-(1H-pyrazol-4-yl)piperazin-1-yl)pyrimidin-2-yl)-6-(trifluoromethyl)imidazo[1,2-a]pyrazine]
